From paper PMC6838683, “Discovery of Human Signaling Systems: Pairing Peptides to G Protein-Coupled Receptors” (Cell, 2019)
No end group written: not given here.

Key:
[1] = molecular target: T1, GPR15 (human) (UniProt P49685)
T1 sequence: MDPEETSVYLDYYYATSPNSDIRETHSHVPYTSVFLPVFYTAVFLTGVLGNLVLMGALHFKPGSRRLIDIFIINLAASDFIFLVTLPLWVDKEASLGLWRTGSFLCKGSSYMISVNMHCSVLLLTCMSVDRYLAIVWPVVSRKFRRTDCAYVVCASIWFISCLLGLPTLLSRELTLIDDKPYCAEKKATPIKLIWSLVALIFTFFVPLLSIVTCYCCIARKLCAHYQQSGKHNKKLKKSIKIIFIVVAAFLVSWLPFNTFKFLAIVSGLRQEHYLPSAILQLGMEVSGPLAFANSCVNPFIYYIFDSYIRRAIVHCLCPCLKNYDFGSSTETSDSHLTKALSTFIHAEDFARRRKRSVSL

[2] = molecular target: T2, GPR1 (Homo sapiens, UniProt P46091); experiment: β-arrestin recruitment (PathHunter); type: cell-based; conditions: for Emax, PathHunter (fold over basal) / pEC50, PathHunter (fold over basal): GPR1, mean, SEM and n
T2 sequence (P46091 1-355): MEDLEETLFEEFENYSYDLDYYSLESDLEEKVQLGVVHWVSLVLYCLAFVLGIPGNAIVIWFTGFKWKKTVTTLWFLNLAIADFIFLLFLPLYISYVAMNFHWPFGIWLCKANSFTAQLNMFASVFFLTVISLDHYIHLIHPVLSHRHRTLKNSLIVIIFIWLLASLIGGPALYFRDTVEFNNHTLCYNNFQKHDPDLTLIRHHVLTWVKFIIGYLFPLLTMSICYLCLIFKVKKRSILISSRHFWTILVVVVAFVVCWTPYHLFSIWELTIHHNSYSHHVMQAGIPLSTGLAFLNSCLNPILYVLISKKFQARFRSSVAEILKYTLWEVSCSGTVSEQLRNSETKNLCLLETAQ
Protocol: PathHunter eXpress Assays (DiscoverX) were performed in 384-well format according to the manufacturer’s recommendations. GPR1 cells were incubated with peptides for 90 min and luminescence measured using an EnSpire 2300 Multimode plate reader (PerkinElmer).

[3] = molecular target: T2, GPR1; experiment: β-arrestin recruitment (Tango), validation; type: cell-based; design: host or cells: HTLA cells (HEK293-derived)
[4] = molecular target: T2, GPR1; experiment: Real-time receptor internalization, validation; type: cell-based; design: host or cells: HTLA cells (HEK293-derived)
Source text: (§1) Supplement mmc7.xlsx, sheet "Peptide validation data" | column: Comment

[5] = molecular target: T2, GPR1; experiment: Dynamic mass redistribution (DMR), validation; type: cell-based; design: host or cells: HTLA cells (HEK293-derived)
Source text: as §1

[6] = molecular target: T3, melanocortin MC4 receptor (Homo sapiens, UniProt P32245); experiment: β-arrestin recruitment (Tango), known peptide receptors; type: cell-based; conditions: MC4R; mean, n = 3
T3 construct: host or cells: HTLA cells (HEK293-derived)
Protocol: (§2) The peptide library was additionally screened against 120 GPCR targets in parallel, including all available orphan receptors and 27 known class A peptide receptors using the Tango assay platform ([Kroeze et al., 2015]). Briefly, HTLA cells (a HEK293 cell line stably expressing a tTA-dependent luciferase reporter and a β-arrestin2-TEV fusion gene) were plated 10,000 cells/well in poly-L-lysine–coated clear-bottom white 384-well plates in DMEM supplemented with 10% FBS, 100 U/ml penicillin and 100 μg/ml streptomycin, 2 μg/ml puromycin and 100 μg/ml hygromycin B. 24 hr later, cells were transfected with Tango GPCR constructs using the calcium phosphate method ([Jordan et al., 1996]). The next day, culture medium was changed to DMEM + 1% dFBS and 10 μM peptides were added for overnight stimulation. Bright-Glo solution (Promega) was incubated for 15–20 min at room temperature, and luminescence was counted using a Trilux luminescence counter (Wallac).
(§3) For subsequent peptide validation experiments using Tango assays, HTLA cells were transiently transfected in 10 cm dishes with the receptor of interest using polyethylenimine (PEI) ([Longo et al., 2013]). After 24 hr, 25,000 cells/well were plated in clear bottom, white-walled 384-well plates. Assays were performed as described above, with luminescence measured using an EnSpire 2300 Multimode plate reader (PerkinElmer). Luminescence counts were exported into Excel and were analyzed using GraphPad Prism 7.

[7] = tested on: human GPCRs; design: method as in Guide to Pharmacology database; conditions: receptor gasr_human (CCKBR, P32239); max reported value; ref Guide to Pharmacology database; cited from earlier work
Source text: Supplement mmc1.xlsx, sheet "HumanGPCRLigands" | column: pKi_value; pKd_value; pEC50_value; pIC50_value

[8] = tested on: NPFF2; experiment: β-arrestin recruitment (Tango), known peptide receptors; type: cell-based, human; conditions: endogenous ligand(s) included in peptide library
Source text: Supplement mmc6.xlsx, sheet "Peptide GPCR controls" | column: Confirmed?

[9] = molecular target: T4, GPR176 (Homo sapiens, UniProt Q14439); experiment: β-arrestin recruitment (Tango), indicative pairing; type: cell-based; conditions: mean, n = 3
T4 construct: host or cells: HTLA cells (HEK293-derived)
T4 sequence (Q14439 1-515): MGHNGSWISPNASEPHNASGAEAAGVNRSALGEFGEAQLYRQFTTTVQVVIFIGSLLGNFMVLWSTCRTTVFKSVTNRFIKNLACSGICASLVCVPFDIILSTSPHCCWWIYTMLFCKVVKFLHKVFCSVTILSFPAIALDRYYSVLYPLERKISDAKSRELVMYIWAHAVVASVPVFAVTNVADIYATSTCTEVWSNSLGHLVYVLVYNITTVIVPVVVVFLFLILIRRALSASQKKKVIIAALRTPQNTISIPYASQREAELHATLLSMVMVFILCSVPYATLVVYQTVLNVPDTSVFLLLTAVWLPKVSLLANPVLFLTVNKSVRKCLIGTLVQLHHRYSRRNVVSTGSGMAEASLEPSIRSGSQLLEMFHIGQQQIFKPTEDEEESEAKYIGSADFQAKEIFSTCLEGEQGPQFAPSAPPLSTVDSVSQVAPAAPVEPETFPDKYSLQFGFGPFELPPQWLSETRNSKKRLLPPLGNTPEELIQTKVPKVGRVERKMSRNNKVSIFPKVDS
Protocol: as §2, §3

T3 sequence (P32245 whole entry): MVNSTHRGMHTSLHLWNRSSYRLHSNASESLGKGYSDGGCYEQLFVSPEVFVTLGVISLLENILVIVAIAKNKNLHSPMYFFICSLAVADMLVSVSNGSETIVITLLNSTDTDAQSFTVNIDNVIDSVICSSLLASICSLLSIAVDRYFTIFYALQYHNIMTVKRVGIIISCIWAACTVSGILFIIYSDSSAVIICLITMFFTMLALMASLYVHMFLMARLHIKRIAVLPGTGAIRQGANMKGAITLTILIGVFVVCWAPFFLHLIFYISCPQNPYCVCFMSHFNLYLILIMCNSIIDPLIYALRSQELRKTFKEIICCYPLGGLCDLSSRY

45-amino acid cleavage variant of GPR15L (peptide)
fold improved potency at GPR15 against the 11-amino acid peptide 64 (assay not given) [1]: 10 fold

CSCC[C@H](NC(=O)[C@H](Cc1c[nH]c2ccccc12)NC(=O)CNC(=O)[C@H](Cc1ccc(O)cc1)NC(=O)[C@H](C)NC(=O)[C@H](CCC(=O)O)NC(=O)[C@H](CCC(=O)O)NC(=O)[C@H](CCC(=O)O)NC(=O)[C@H](CCC(=O)O)NC(=O)[C@H](CCC(=O)O)NC(=O)[C@H](CC(C)C)NC(=O)[C@H](Cc1c[nH]c2ccccc12)NC(=O)[C@@H]1CCCN1C(=O)CNC(=O)[C@@H](N)CCC(N)=O)C(=O)N[C@@H](CC(=O)O)C(=O)N[C@@H](Cc1ccccc1)C(N)=O [Peptide 118, Gastrin-17, reference compound]
Emax, PathHunter (fold over basal) [2]: 3.5 fold over basal
pEC50, PathHunter (fold over basal) [2]: 5.24
EC50 ([2]; PathHunter eXpress GPR1 cells, 90 min, luminescence, mean ± SEM of 3-4 independent experiments in triplicate, read-out: pEC50, β-arrestin recruitment (PathHunter), GPR1 (converted)): 6.31 µM
Emax, Tango (fold over basal) ([3]; GPR1, mean, SEM and n): 9.8 fold over basal
EC50 ([3]; HTLA cells transiently transfected, overnight stimulation, luciferase, mean ± SEM of 3-4 independent experiments in triplicate, read-out: pEC50, β-arrestin recruitment (Tango), GPR1 (converted)): > 10 µM
EC50 ([3]; pEC50, Tango (fold over basal), GPR1, mean, SEM and n): 102 µM
Comment on response, Internalization (AUC); Emax and pEC50 n.d. [4]: No response; known CCK receptor agonist
Comment on response, DMR (AUC); Emax and pEC50 n.d. [5]: No response; known CCK receptor agonist

ELEGEQPDGLEHVLEPDTEKADGPYRVEHFRWGNPPKD [Peptide 205]
Emax, Tango (fold over basal) [6]: 4.9 fold over basal
pEC50, Tango (fold over basal) [6]: 6.21

HSQGTFTSDYSKYLDS [Peptide 110]
Emax, Tango (fold over basal) [6]: 4.2 fold over basal
pEC50, Tango (fold over basal) [6]: 5.93

KAPSGRMSIVKNLQNLDPSHRISDRDYMGWMDF [Peptide 194, cholecystokinin (CCK-33), reference compound]
Emax, PathHunter (fold over basal) [2]: 5.7 fold over basal
pEC50, PathHunter (fold over basal) [2]: 8.01
pIC50_value [7]: 8.8
Emax, Tango (fold over basal) ([3]; GPR1, mean, SEM and n): 15.0 fold over basal
pEC50, Tango (fold over basal) ([3]; GPR1, mean, SEM and n): 5.28
Comment on response, Internalization (AUC); Emax and pEC50 n.d. [4]: No response; Known CCK receptor agonist
Comment on response, DMR (AUC); Emax and pEC50 n.d. [5]: No response; Known CCK receptor agonist

KRSFSGFGSPLDRLSAGSVDHK [Processed Osteocrin_(-2-19)]
Emax, PathHunter (fold over basal) [2]: 8.0 fold over basal
pEC50, PathHunter (fold over basal) [2]: 6.18
Emax, Tango (fold over basal) ([3]; GPR1, mean, SEM and n): 14.4 fold over basal
pEC50, Tango (fold over basal) ([3]; GPR1, mean, SEM and n): 5.60
Comment on response, Internalization (AUC); Emax and pEC50 n.d. [4]: No response
Comment on response, DMR (AUC); Emax and pEC50 n.d. [5]: No response

Neuropeptide NPVF; RFRP-3
Confirmed? (confirmation of b-arrestin recruitment) [8]: No

Neuropeptide RFRP-1 (MPHSFANLPLRF-NH2)
Confirmed? (confirmation of b-arrestin recruitment) [8]: No

Neuropeptide SF (SQAFLFQPQRF-NH2)
Confirmed? (confirmation of b-arrestin recruitment) [8]: No

RSVNPYLQ [Peptide 32]
Emax, Tango (fold over basal) [9]: 2.3 fold over basal
pEC50, Tango (fold over basal) [9]: 5.82

peptide 64 (GPR15L_(47-57))
pEC50 of reduced cyclic AMP (cAMP) production (Gi/o) [1]: 6.72 pEC50

B1: GPR15L (ligand)
peptide: KRRPAKAWSGRRTRLCCHRVPSPNSTNLKGHHVRLCKPCKLEPEPRLWVVPGALPQV
modifications: disulfide (positions not given here)
fold improved potency at GPR15 against the 11-amino acid peptide 64 (assay not given) [1]: 100 fold
